Assay results as given in ChEMBL document CHEMBL1150869, “Bombardolides: new antifungal and antibacterial gamma-lactones from the coprophilous fungus Bombardioidea anartia” (2001).

Assays:
Format in all cases: functional
Conditions in all cases: read-out: IZ
Bacillus subtilis = test: Antimicrobial activity against Bacillus subtilis ATCC 6051 at 200 ug/disk by standard disk diffusion method
Staphylococcus aureus = test: Antimicrobial activity against Staphylococcus aureus ATCC 29213 at 200 ug/disk by standard disk diffusion method
Candida albicans = test: Antimicrobial activity against Candida albicans ATCC 10231 at 200 ug/disk by standard disk diffusion method

Compound	zone of inhibition at 200 µg/disc (Bacillus subtilis)	zone of inhibition at 200 µg/disc (Staphylococcus aureus)	zone of inhibition at 200 µg/disc (Candida albicans)
CC/C=C1/C=C(CCCO)C(=O)O1 [(E/Z)-BOMBARDOLIDE B]	11 mm		
CCCCC(O)c1cccc(O)c1 (centres undefined)	12 mm	19 mm	
CC/C=C1C=C(/C=C/CO)C(=O)O/1	19 mm	14 mm	35 mm
CC/C=C1C=C(/C=C/C(=O)O)C(=O)O/1	26 mm	18 mm	
CCCC1C=C(/C=C/CO)C(=O)O1 (centres undefined) [BOMBARDOLIDE D]			20 mm
